Results published in US9260466B2, “Use of a flavanol glycoside for suppressing activation of stellate cells” (Hong Kong Baptist University, priority 2013, dated 2016).
Values after ≈ are worked out from the molar mass of the structure shown.

Columns and labels:
Format in all cases: cell-based, rat
LTC-14 cells [1] = test: Immunofluorescent staining of α-SMA in TGF-β-stimulated LTC-14 cells; details: TGF-β 5 ng/mL, FIG. 1
Experimental: (§1) LTC-14 cells were cultured at 37° C. under a humidified condition of 95% air and 5% CO2 in Iscove's Modified Dulbecco's Medium (IMDM) supplemented with 10% fetal bovine serum (FBS). Cells used in all the experiment were among passages 9 to 25. LTC-14 cells were seeded at a density of 1×10^5/well in a 12-well plate, and incubated with recombinant TGF-β at 5 ng/mL and Eruberin A at 0, 0.5, 1, 5, 10 and 20 μg/mL in serum-free IMDM for 24 hours. Cells were then harvested for mRNA and protein extraction or subjected to Sirius Red/Fast Green staining or immunofluorescent staining.
For immunofluorescent staining of α-SMA, LTC-14 cells were seeded at a density of 1×10^5 onto the poly-L-lysine-coated cover slips in a 24-well plate, incubated with TGF-β at 5 ng/mL and Eruberin A at 0, 0.5, 1, 5, 10 and 20 μg/mL in serum-free IMDM for 24 hours. Cells were then fixed, blocked with 3% bovine serum albumin (BSA), probed with antibodies and mounted with fluorescence mounting medium containing 4′,6-diamidino-2-phenylindole (DAPI). Images were captured using the Nikon microscope and analyzed by the SPOT advanced software.

LTC-14 cells [2] = test: Western blotting of α-SMA and FN1 proteins in TGF-β-stimulated LTC-14 cells; details: TGF-β 5 ng/mL, Eruberin A 0.5-20 μg/mL, 24 hours, serum-free medium, FIG. 2
Experimental: as §1
(§2) Cytoplasmic and nuclear protein fractions of the LTC-14 cells were extracted using specific lysis buffers containing protease inhibitors. Cell lysates were loaded and separated by SDS-polyacrylamide gel electrophoresis. After wet electroblotting, proteins were transferred onto PVDF membranes (Bio-Rad), blocked with 5% non-fat milk, probed with antibodies and visualized by utilization of an ECL kit (GE Healthcare).

LTC-14 cells [3] = test: Sirius Red/Fast Green collagen staining of LTC-14 cells; details: TGF-β 5 ng/mL, Eruberin A 10 μg/mL, p<0.05 vs TGF-β alone, FIG. 3
Experimental: as §1
Amounts of collagen and non-collagenous proteins in LTC-14 cells were measured using the Sirius Red/Fast Green collagen staining kit (Chondrex Inc.) according to the manufacturer's instruction.

LTC-14 cells [4] = test: Real-time quantitative PCR of fibrotic mediator mRNA in TGF-β-stimulated LTC-14 cells; details: TGF-β 5 ng/mL, 24 hours
Experimental: as §1
mRNA samples from LTC-14 cells were extracted using Trizol reagent and subjected to a reverse transcription for cDNA synthesis. The synthesized cDNA was applied to amplifications with rat-specific primers for Tgf-β, Acta2, Col I-α1 and Fn1 in the ABI ViiA 7 real-time PCR system (Applied Biosystems) using 2×SYBR Green PCR Master Mix (Applied Biosystems). The Ct value of gene of interest was normalized to the endogenous reference Gapdh and presented as 2^−ΔΔCt using the comparative Ct method.

LTC-14 cells [5] = test: MTT cell proliferation assay; details: Eruberin A in the range of 0 to 20 μg/mL; results not shown
NF-κB = test: Western blotting of nuclear translocation of NF-κB in LTC-14 cells; details: compared to the TGF-β-treated control, FIG. 5
Experimental: as §1, §2

[6] = Eruberin A 0.5-20 μg/mL, FIG. 4

Q: With `COc1ccc(C2C[C@@H]3OC4C(Oc5c(C)c(O)c(C)c(c53)O2)OC(CO)C(O)C4O)cc1` (stereo partly drawn) [Eruberin A] as the compound, how does the “TGF-β-stimulated α-SMA expression (immunofluorescence)” value (LTC-14 cells [1]; 24 hours) read?
A: significantly attenuated

Q: What about the “immunoreactivities of α-SMA” value (LTC-14 cells [1]; Eruberin A at 10 μg/mL) of the same compound?
A: sufficiently suppress

Q: What about the “TGF-β-provoked elevation of FN1 protein” value (LTC-14 cells [2]) of the same compound?
A: effectively attenuated

Q: And the “TGF-β-provoked elevation of α-SMA protein” value (LTC-14 cells [2])?
A: effectively attenuated

Q: What about the “production of collagen (ratio of Sirius Red-stained collagenous to Fast Green-stained non-collagenous proteins)” value (LTC-14 cells [3]) of the same compound?
A: notably suppressed

Q: What about the IC50 (LTC-14 cells [4]; Rattus norvegicus, read-out: IC50 based on suppressive effects on the mRNA expression of α-SMA) of the same compound?
A: ~10 µg/mL (≈ 21.7 µM)

Q: What about the “TGF-β-elevated mRNA expression level of Acta2” value (LTC-14 cells [4]; [6]) of the same compound?
A: significantly and dose-dependently suppressed

Q: What about the “TGF-β-elevated mRNA expression level of Col I-α1” value (LTC-14 cells [4]; [6]) of the same compound?
A: significantly and dose-dependently suppressed

Q: And the “TGF-β-elevated mRNA expression level of Fn1” value (LTC-14 cells [4]; [6])?
A: significantly and dose-dependently suppressed

Q: What about the “TGF-β-elevated mRNA expression level of Tgf-” value (LTC-14 cells [4]; [6]) of the same compound?
A: significantly and dose-dependently suppressed

Q: And the “cytotoxicity (MTT cell proliferation assay)” value (LTC-14 cells [5])?
A: no notable cytotoxicity

Q: What about the “nuclear translocation of NF-κB” value (NF-κB) of the same compound?
A: significantly decreased
